The values that follow come from PubChem BioAssay (NCI).

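Method: 48-hour compound exposure of cells in 96-well plates, five concentrations, linear interpolation of endpoints. At the TGI there is no net growth.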

Test in all cases: inhibition of tumour cell growth, NCI panel, 48 h
In test [1] the test system is A549 NSCLC.
Test [2] deals with BT-549 breast.
The subject of test [3] is HOP-62 NSCLC.
Test [4] deals with MDA-N.
In test [5] the test system is NCI-H226 lung.
For test [6], the system named is RPMI-8226 leukemia.
Test [7] relates to SK-MEL-28 melanoma.
Test [8] deals with SK-MEL-5 melanoma.
Test [9] concerns SN12C renal.
Test [10] has as its system SR leukemia.
The subject of test [11] is UACC-62 melanoma.
Test [12] deals with LOX IMVI melanoma.

On to `CCOC(=O)c1csc(-c2nc(CCNC(=O)c3ccccc3)sc2Cl)n1`, for which the TGI in [1], in [2], in test [3], in test [4], in test [5] and in [6] was greater than 100 µM in each case. Further, the TGI in test [7], in [8], in test [9], in test [10] and in [11] was greater than 100 µM throughout.

On to `CCCCN1CCC(O)(c2cc(C(=O)O)[nH]c2-c2cc(C)no2)C1=O` (configuration not stated), for which the TGI in [1], in test [2], in test [3], in test [4], in [6] and in test [7] was greater than 100 µM in each case. Moreover, the TGI in test [8] and in test [11] was greater than 100 µM throughout.

In the case of `S=C(S)N1CCN(c2ccccc2)CC1`, the TGI in [1] is greater than 100 µM; in test [2], greater than 100 µM; in test [3], greater than 100 µM; in test [12] it was greater than 100 µM; in [4], greater than 100 µM; in test [6], 77.3 µM. Besides, the TGI in [7], in test [8] and in test [9] was greater than 100 µM in each case.

On to `COc1ccc(NC(=S)Nc2c(C)n(C)n(-c3ccccc3)c2=O)cc1`, for which the TGI in test [1], in test [2], in test [3], in test [12], in test [4] and in [5] was greater than 100 µM each time. Further, the TGI in test [6], in [7], in test [8] and in test [11] was greater than 100 µM each time.

For `O=P(O)(O)CC1OC(CO)C(O)C1O` (configuration not stated), the TGI in [1], in test [2], in test [12], in [4], in test [5] and in test [7] was greater than 100 µM each time. Further, the TGI in test [8], in test [9] and in [11] was greater than 100 µM each time.

In the case of `CCOC(OCC)[C@H](N)[C@@H](O)[C@@H](O)[C@H]1COC(C)(C)O1`, the TGI in [1], in [3], in test [12], in [4], in test [5] and in test [6] was greater than 100 µM each time. For the same compound, the TGI in test [7], in test [8], in test [9], in test [10] and in [11] was greater than 100 µM throughout.

`COc1cc(OC2OC(CO)C(O)C(O)C2O)c2c(c1)O[C@@H]1[C@H](O)Oc3cc(OC)c(OC)cc3[C@]1(O)C2=O` (some centres not stated): the TGI in test [1], in test [3], in test [12], in test [4], in test [5] and in test [6] was greater than 25 µM in each case. Also, the TGI in test [7], in test [8], in test [9], in test [10] and in test [11] was greater than 25 µM throughout.

Take `O=C1/C(=C\c2cccc(Oc3ccccc3)c2)SC(c2ccccc2)N1c1cccc(Cl)c1` (configuration not stated): the TGI in test [1], in test [2], in test [3], in test [12], in test [4] and in [5] was greater than 100 µM in each case. Besides, the TGI in test [6], in test [7], in test [8], in test [9] and in test [11] was greater than 100 µM each time.

For `Cc1ccc2c(=O)c(C(=O)NNC(=S)NC3CCCCC3)c[nH]c2n1`, the TGI in test [1], in [2], in test [3], in test [12], in test [4] and in test [5] was greater than 100 µM throughout. Also, the TGI in test [6], in test [7], in test [8], in test [9] and in [11] was greater than 100 µM throughout.

In the case of `Nc1nc(Cc2ccccc2)nc(Cc2ccccc2)c1-c1ccccc1`, the TGI is greater than 100 µM in test [1]; 50.9 µM in test [2]; 54 µM in [3]; 51.4 µM in test [12]; 38.8 µM in test [4]; 53.4 µM in [5]. Further, the TGI in [7] was greater than 100 µM; in test [8], 29.2 µM; in test [9] it was greater than 100 µM; in [10] it was 48.5 µM; in test [11], 43 µM.

In the case of `COc1ccc(/C=C2/SC(c3c(O)ccc4ccccc34)N(NC(=O)CCCCCCCCC(=O)NN3C(=O)/C(=C\c4ccc(OC)c(OC)c4)SC3c3c(O)ccc4ccccc34)C2=O)cc1OC` (configuration not stated), the TGI in test [1] was greater than 21.4 µM; in test [2], greater than 100 µM; in test [3], greater than 39.8 µM; in test [12] it was 12.8 µM; in test [4] it was greater than 100 µM; in test [5] it was 15.9 µM. In addition, the TGI is greater than 100 µM in [7]; 2.29 µM in test [8]; greater than 100 µM in test [9]; 1.62 µM in [10]; 11.2 µM in test [11].

For the compound `C/C(=N\Nc1nc2ccccc2o1)c1cc2ccccc2cn1`, the TGI in test [1] is 9.46 µM; in [2], 3.23 µM; in test [3], 15.6 µM; in [4], 35.3 µM; in [6], greater than 20.7 µM; in test [7] it was 48.6 µM. In addition, the TGI in test [8] was determined as 22.5 µM; in test [9], 33.7 µM; in test [11], 2.53 µM.

`CCNC1=C(NC(=O)CCl)C(=O)c2ccccc2C1=O`: the TGI was 99.6 µM in [1]; greater than 10 µM in test [2]; 30.2 µM in [3]; 29.2 µM in [4]; 48.2 µM in test [5]; greater than 100 µM in [6]. Moreover, the TGI in test [7] came to 31.7 µM; in test [8], 30.3 µM; in test [9], 32.8 µM; in test [10], 80.3 µM.
